Data published in patent publication US20160251342A1, “ALDEHYDE DERIVATIVE OF SUBSTITUTED OXAZOLIDINONES” (WANBURY LTD., priority 2012, published 2016).
Values joined by “and” are separate entries in the source; they are usually repeats but may differ in a detail not shown here. Identical values can stand only once.

Experiments:
plasma protein [1] = assay: Plasma protein binding (dialysis), rat; type: in vitro ADME
Procedure: (§1) A compound solution (1 mM in DMSO) (5 μL), according to the invention is added to the respective plasma matrices of rat or human or mouse (1 ml).
(§2) Add 150 μl of phosphate buffer to receiving side of the dialysis well. […] Precipitate with Acetonitrile and dilute samples prior to analysis in 1.5 ml polypropylene tubes. Remove 50 μl from the sample side of dialysis well and add 50 μl of phosphate buffer+300 μl of acetonitrile containing IS. Remove 50 μl from the buffer side of the dialysis well and add 50 μl of respective matrix plasma+300 μl of ACN. Then vortexed and centrifuged for 5 min, and supernatant is taken and injected into LCMS.
(§3) Different test concentration ranging from 0.1 μM to 20 μM are made in methanol:water (90:10). Test solutions are added to the premixed matrix containing plasma:phosphate buffer (50:50). Precipitate with 300 μl of ice cold acetonitrile containing IS, vortexes and centrifuged. Supernatant is taken and injected into LCMS.
(§4) Percentage of plasma protein binding was obtained via Equation (2): % Fraction unbound=(concentration on the buffer side/concentration on the sample side)*100

[2] = Stability in simulating intestinal fluid (SIF); type: physicochemical; conditions: SIF pH 7.4, up to 120 min
Procedure: (§5) On completion of incubation period, the solution is centrifuged and supernatant is taken. To the supernatant, ice cold acetonitrile containing IS is added, vortexed and injected into LCMS/MS.
(§6) API 4000, ESI Agilent 1100 column: Gemini Nx 100 mm×4.6 mm 5.μ; column temperature: 30° C.; eluent A: 0.1% formic acid in water, eluent B: acetonitrile; gradient: 0-2.5 min 95% A, 5% B; 2.5-2.6 min 5% A, 95% B; 2.6-4.2 min 95% A, 5% B; flow rate: 0.8 ml/min; ESI. Q1:464.098, Q3:144.255
SIF/SGF: 2.38 g of SIF original powder (biorelavant media) is dissolved in 1 L of milliQ water. The pH of the solution is adjusted for SIF (7.4) and SGF (2.2) with 0.1N HCl. The ratios of the peak areas (F) at the respective time points in relation to the peak areas at the starting time are calculated. […] The peak area (F) is directly correlated to the amount of test compound which is quantified by the LC MS method.
In simulating intestinal and gastric fluid, the area of the formula B compared with zero minute area to 120 min.

[3] = Stability in buffer at various pH (LC-MS/MS); type: physicochemical; conditions: for Analyte Peak Area (counts): 24 hr room temperature, replicates, Standard average 39849828
Procedure: as §5, §6
Prepared 0.1 mol of citric acid and 0.2 mol of di sodium hydrogen phosphate in water. Buffer pH 2.2, 4 and 7.8 are prepared using citric acid and disodium hydrogen phosphate by adjusting the pH with 0.1N HCl or 1N NaOHpH 7.4:8.89 g disodium hydrogen phosphate (Solution A) add to 1 litre of water, 1.5601 g sodium di-hydrogen phosphate (solution B) are made up to 1 liter with water; […] are mixed.

plasma protein [4] = assay: Plasma protein binding (dialysis), human; type: in vitro ADME
Procedure: as §1, §2, §3, §4

CYP isoforms = assay: CYP inhibition studies, overall interpretation; type: in vitro ADME, humans; conditions: compound formula-B with other drug when administered
Procedure: The ability of substances to inhibit CYP1A2, CYP2C9, CYP2D6, CYP2C19, CYP2J2 and CYP3A4 in humans was investigated with pooled human liver microsomes as enzyme source in the presence of standard substrates (see below) which form CYP-isoform-specific metabolites.
Standard incubation mixtures comprise NADPH and substrates in 100 mM phosphate buffer (pH 7.4) in a total volume of 200 μl. Test compound are dissolved in acetonitrile. Incubated with pooled human liver microsomes at 37° C. for a defined time. The reactions are stopped by adding 100 μl of acetonitrile in which a suitable internal standard is always present. Precipitated proteins are removed by centrifugation, and the supernatants analyzed by LC-MS/MS. The data represents the extrapolated IC50 (μM) concentration derived from 3 μM.
This is an essential parameter to gauge drug-drug interactions.

O=CN(C[C@H]1CN(c2ccc(N3CCOCC3=O)cc2)C(=O)O1)C(=O)c1ccc(Cl)s1 [compound formula (B), 5-chloro-N-formyl-N-({(5S)-2-oxo-3-[4-(3-oxomorpholin-4-yl)phenyl]-1,3-oxazolidin-5-yl}methyl)thiophene-2-carboxamide]
Observation: amount of test product (plasma protein [1]): Not quantificable amount of test
Observation: formed Rivaroxaban bound to plasma protein (plasma protein [1]; phrase continues 'High bound' in next line): Rivaroxaban found to be moderate-
Stability at simulating intestinal conditions [2]: stable
Analyte Peak Area (counts) ([3]; pH 2.1 buffer): 20975674 counts and 35654402 counts
Analyte Peak Area (counts) ([3]; pH 4 buffer): 42841292 counts and 26917087 counts
Analyte Peak Area (counts) ([3]; pH 7.8 buffer): 35312 counts and 42503 counts
Stability in varying pH buffer conditions ([3]; varying pH buffers, rivaroxaban formation observed): degraded
Observation: amount of test product (plasma protein [4]): Not quantificable amount of test
Observation: formed Rivaroxaban bound to plasma protein (plasma protein [4]): Rivaroxaban found to be High
Interpretation: drug-drug interaction (CYP isoforms): Low drug-drug interaction
